Measured values published in ChEMBL document CHEMBL1145140, “Inhibitors of inosine monophosphate dehydrogenase: SARs about the N-[3-Methoxy-4-(5-oxazolyl)phenyl moiety” (Bioorg Med Chem Lett, 2003).

What was measured:
CCRF-CEM = assay: Inhibition of CEM cell proliferation.; type: functional, cell-based; settings: Homo sapiens
[1] = target: Inosine-5'-monophosphate dehydrogenase 2 (Homo sapiens, UniProt P12268); assay: Inhibition of inosine-5'-monophosphate dehydrogenase 2.; type: single protein

SMILES | IC50 (CCRF-CEM) [µM] | IC50 [1] [µM]
CC(C)(C)NC(=O)C(=O)Nc1ccc(-c2cnco2)c(Cl)c1 | > 10 | –
CC(C)(C)NC(=O)C(=O)Nc1ccc(-c2cnco2)c(Br)c1 | 5.5 | –
COc1cc(NC(=O)C(=O)NC(C)(C)C)ccc1-c1cnco1 | 2.3 | –
CC(C)(C)NC(=O)C(=O)Nc1ccc(-c2cnco2)cc1 | – | > 5
Cc1ncoc1-c1ccc(NC(=O)C(=O)NC(C)(C)C)cc1 | – | > 5
Cc1cccc(NC(=O)Nc2ccc(-c3cnco3)c(Cl)c2)c1 | > 10 | 0.043
CN(C(=O)CN1CCOCC1)c1ccccc1-c1cnc(Nc2ccc(-c3cnco3)c(Cl)c2)o1 | 4.3 | 0.047
c1ccc(-c2cnc(Nc3ccc(-c4cocn4)cc3)o2)cc1 | – | > 5
Cc1cc(Nc2ncc(-c3ccccc3N(C)C(=O)CO)o2)ccc1-c1cnco1 | 4.5 | 0.1
Cc1cccc(NC(=O)Nc2ccc(-c3ocnc3C)cc2)c1 | – | 0.5
COc1cc(Nc2ncc(-c3ccccc3N(C)C(=O)CN3CCOCC3)o2)ccc1-c1cocn1 | 9.9 | 0.091
CNc1nc(Nc2ccc(-c3cocn3)c(OC)c2)nc(-c2ccccc2)n1 | – | 1.6
COc1cc(Nc2ncc(-c3ccccc3N(C)C(=O)CO)o2)ccc1-c1cnco1 | 1.4 | 0.021
COc1c(-c2cnco2)ccc(Nc2ncc(-c3ccccc3)o2)c1Cl | – | > 5
CN(C(=O)CN1CCOCC1)c1ccccc1-c1cnc(Nc2ccc(-c3cnco3)c(Br)c2)o1 | 3.2 | 0.028
CNc1nc(Nc2ccc(-c3cnco3)c(OC)c2)nc(-c2ccccc2)n1 | 3.7 | –
COc1cc(NC(=NC#N)Nc2ccccc2)ccc1-c1cnco1 | – | 0.24
Cc1cccc(NC(=O)Nc2ccc(-c3cnco3)cc2)c1 | > 10 | 0.64
COc1cc(Nc2ncc(-c3ccccc3)o2)c(F)cc1-c1cnco1 | – | > 5
CNc1nc(Nc2ccc(-c3cnco3)cc2)nc(-c2ccccc2)n1 | – | > 5
COc1cc(Nc2ncc(-c3ccccc3)o2)ccc1-n1cncn1 | 8.3 | 0.41
Cc1cc(Nc2ncc(-c3ccccc3)o2)ccc1-c1cocn1 | – | > 5
CCc1cc(Nc2ncc(-c3ccccc3N(C)C(=O)CO)o2)ccc1-c1cnco1 | 4.5 | 0.1

SMILES | IC50 (CCRF-CEM) [µM] | IC50 [1] [µM]
Cc1cc(Nc2ncc(-c3ccccc3N(C)C(=O)CN3CCOCC3)o2)ccc1-c1cnco1 | 3 | 0.045
Clc1cc(Nc2ncc(-c3ccccc3)o2)ccc1-c1cocn1 | – | > 5
CCOc1cc(Nc2ncc(-c3ccccc3)o2)ccc1-c1cnco1 | – | > 10
CNc1nc(Nc2ccc(-c3ocnc3C)cc2)nc(-c2ccccc2)n1 | – | > 5
CCc1cc(Nc2ncc(-c3ccccc3N(C)C(=O)CN3CCOCC3)o2)ccc1-c1cnco1 | > 10 | 0.31
CN(C(=O)CO)c1ccccc1-c1cnc(Nc2ccc(-c3cnco3)c(Br)c2)o1 | 2.4 | 0.021
Oc1cc(Nc2ncc(-c3ccccc3)o2)ccc1-c1cnco1 | – | > 1.6
COc1cc(Nc2ncc(-c3ccccc3N(C)C(=O)CO)o2)ccc1-c1cocn1 | 3.7 | 0.041
COc1cc(Nc2ncc(-c3ccccc3)o2)c(Cl)cc1-c1cnco1 | – | > 1.6
Clc1cc(Nc2ncc(-c3ccccc3)o2)ccc1-c1cnco1 | > 10 | 0.088
CN(C(=O)CO)c1ccccc1-c1cnc(Nc2ccc(-c3cnco3)c(Cl)c2)o1 | 3.6 | 0.041
COc1cc(Nc2ncc(-c3ccccc3)o2)ccc1-c1cnc(C)o1 | – | > 2
Cc1nc(C)c(-c2ccc(Nc3ncc(-c4ccccc4)o3)cc2)o1 | – | > 2
COc1cc(Nc2ncc(-c3ccccc3)o2)ccc1-c1cocn1 | > 10 | > 0.057
COc1cc(Nc2ncc(-c3ccccc3)o2)ccc1-c1ocnc1C | – | > 5
COc1cc(Nc2ncc(-c3ccccc3)o2)ccc1-c1cnco1 | > 10 | –
Cc1ncoc1-c1ccc(NC(=O)/C=C/c2ccco2)cc1 | – | > 2
Cc1ncoc1-c1ccc(Nc2ncc(-c3ccccc3)o2)cc1 | – | > 5
COc1cc(NC(=O)Nc2cccc(C)c2)ccc1-c1cnco1 | 2.3 | –
c1ccc(-c2cnc(Nc3ccc(-c4cnco4)cc3)o2)cc1 | – | > 5
COc1cc(Nc2ncc(-c3ccccc3)o2)ccc1-c1ncco1 | – | 0.19
COc1cc2nc(-c3ccccc3)cc(O)c2cc1-c1cocn1 | 3.5 | 0.21
CNc1nc(Nc2ccc(-c3cnco3)c(Cl)c2)nc(-c2ccccc2)n1 | – | > 0.34
